# Experiment: Acute toxicity, mouse, intraperitoneal
# Type: in vivo
smiles,measurement,setting,value
COC1c2cc(O)cc(c2O)NC(=O)/C(C)=C/C=C\C(C)C(OC(N)=O)/C(C)=C/C(C)C(OC)C(O)CC1C (centres unmarked) [E-5-R],acute toxicity as compared with Macbecin I and II (in words),"intraperitoneal, versus Macbecin I and II",lower toxicity as compared with Macbecin I and II
same,acute toxicity (in words),ip,low toxicity

# Reference: patent US4421688A, “Macbecin derivatives” (Takeda Chemical Industries, Ltd., priority 1981, dated 1983)
